From ChEMBL document CHEMBL3734678, “Protective effect and mechanism of action of lupane triterpenes from Cornus walteri in cisplatin-induced nephrotoxicity” (2015)
The source made the active and inactive calls. No cut-off for these calls is given here.

What was measured:
LLC-PK1 [1] = assay: Renoprotective activity in pig LLC-PK1 cells assessed as reduction in cisplatin-induced toxicity preincubated for 2 hrs followed by cisplatin challenge for 24 hrs by MTT assay; assay type: functional, cell-based; details: Sus scrofa
LLC-PK1 [2] = assay: Renoprotective activity in pig LLC-PK1 cells assessed as reduction in cisplatin-induced toxicity at 125 uM preincubated for 2 hrs followed by cisplatin challenge for 24 hrs by MTT assay; assay type: functional, Sus scrofa; design: scale not given: the % may be the effect or the level left
LLC-PK1 [3] = assay: Renoprotective activity in pig LLC-PK1 cells assessed as reduction in cisplatin-induced cell shrank at 125 uM preincubated for 2 hrs followed by cisplatin challenge for 24 hrs by phase-contrast microscopic analysis; assay type: functional, cell-based; details: Sus scrofa
LLC-PK1 [4] = assay: Renoprotective activity in pig LLC-PK1 cells assessed as reduction in cisplatin-induced progressive condensation at 125 uM preincubated for 2 hrs followed by cisplatin challenge for 24 hrs by phase-contrast microscopic analysis; assay type: functional, cell-based; details: Sus scrofa
LLC-PK1 [5] = assay: Renoprotective activity in pig LLC-PK1 cells assessed as reduction in cisplatin-induced nucleus break-up at 125 uM preincubated for 2 hrs followed by cisplatin challenge for 24 hrs by phase-contrast microscopic analysis; assay type: functional, cell-based; details: Sus scrofa
LLC-PK1 [6] = assay: Renoprotective activity against cisplatin induced toxicity in pig LLC-PK1 cells assessed as reduction in apoptotic cells at 125 uM preincubated for 2 hrs followed by cisplatin challenge for 24 hrs annexin-V-FITC and propidium iodide staining based flow cytometry; assay type: functional, cell-based; details: Sus scrofa
LLC-PK1 [7] = assay: Inhibition of cisplatin-induced JNK phosphorylation in pig LLC-PK1 cells at 125 uM preincubated for 2 hrs followed by cisplatin challenge for 24 hrs by western blot analysis; assay type: cell-based; details: Sus scrofa
LLC-PK1 [8] = assay: Inhibition of cisplatin-induced ERK phosphorylation in pig LLC-PK1 cells at 125 uM preincubated for 2 hrs followed by cisplatin challenge for 24 hrs by western blot analysis; assay type: cell-based; details: Sus scrofa
LLC-PK1 [9] = assay: Inhibition of cisplatin-induced p38 phosphorylation in pig LLC-PK1 cells at 125 uM preincubated for 2 hrs followed by cisplatin challenge for 24 hrs by western blot analysis; assay type: cell-based; details: Sus scrofa
LLC-PK1 [10] = assay: Renoprotective activity in pig LLC-PK1 cells assessed as inhibition of cisplatin-induced cleaved caspase-3 expression at 125 uM preincubated for 2 hrs followed by cisplatin challenge for 24 hrs by western blot analysis; assay type: functional, cell-based; details: Sus scrofa
LLC-PK1 [11] = assay: Renoprotective activity in pig LLC-PK1 cells assessed as reduction in cisplatin-induced toxicity at 250 uM preincubated for 2 hrs followed by cisplatin challenge for 24 hrs by MTT assay; assay type: functional, Sus scrofa; design: scale not given: the % may be the effect or the level left

Q: How did the Activity (LLC-PK1 [1]) turn out when `C=C(C)[C@@H]1CC[C@]2(C(=O)O)CC[C@]3(C)[C@H](CC[C@@H]4[C@@]5(C)C[C@@H](OC(=O)/C=C/c6ccc(O)cc6)[C@H](O)C(C)(C)[C@@H]5CC[C@]43C)[C@@H]12` was run?
A: Dose-dependent effect

Q: What does the source list for `C=C(C)[C@@H]1CC[C@]2(C(=O)O)CC[C@]3(C)[C@H](CC[C@@H]4[C@@]5(C)CC[C@H](O)C(C)(C)[C@@H]5CC[C@]43C)[C@@H]12` [BETULINIC ACID]?
A: Activity (LLC-PK1 [2]): 80%; Activity (LLC-PK1 [3]): Active; Activity (LLC-PK1 [4]): Active; Activity (LLC-PK1 [5]): Active; Activity (LLC-PK1 [6]): Active; inhibition (LLC-PK1 [7]): Active; inhibition (LLC-PK1 [8]): inactive; inhibition (LLC-PK1 [9]): Active; inhibition (LLC-PK1 [10]): Active; Activity (LLC-PK1 [1]): Dose-dependent effect; Activity (LLC-PK1 [11]): 80%

Q: `C=C(C=O)[C@@H]1CC[C@]2(C(=O)O)CC[C@]3(C)[C@H](CC[C@@H]4[C@@]5(C)CC[C@H](O)C(C)(C)[C@@H]5CC[C@]43C)[C@@H]12` was tested. Which Activity (LLC-PK1 [2]) did it give?
A: 80%

Q: What about the Activity (LLC-PK1 [3]) of the same compound?
A: Active

Q: And the Activity (LLC-PK1 [4])?
A: Active

Q: And the Activity (LLC-PK1 [5])?
A: Active

Q: What about the Activity (LLC-PK1 [6]) of the same compound?
A: Active

Q: And the inhibition (LLC-PK1 [7])?
A: Active

Q: And the inhibition (LLC-PK1 [8])?
A: Active

Q: And the inhibition (LLC-PK1 [9])?
A: Active

Q: What about the inhibition (LLC-PK1 [10]) of the same compound?
A: Active

Q: What about the Activity (LLC-PK1 [1]) of the same compound?
A: Dose-dependent effect

Q: What about the Activity (LLC-PK1 [11]) of the same compound?
A: 80%

Q: Which Activity (LLC-PK1 [2]) does the source give for `C=C(C)[C@@H]1CC[C@]2(CO)CC[C@]3(C)[C@H](CC[C@@H]4[C@@]5(C)CC[C@H](OC(C)=O)C(C)(C)[C@@H]5CC[C@]43C)[C@@H]12` here?
A: 80%

Q: And the Activity (LLC-PK1 [3])?
A: Active

Q: What about the Activity (LLC-PK1 [4]) of the same compound?
A: Active

Q: And the Activity (LLC-PK1 [5])?
A: Active

Q: And the Activity (LLC-PK1 [6])?
A: Active

Q: What about the inhibition (LLC-PK1 [7]) of the same compound?
A: Active

Q: What about the inhibition (LLC-PK1 [8]) of the same compound?
A: Active

Q: What about the inhibition (LLC-PK1 [9]) of the same compound?
A: Active

Q: And the inhibition (LLC-PK1 [10])?
A: Active

Q: What about the Activity (LLC-PK1 [1]) of the same compound?
A: Dose-dependent effect

Q: What about the Activity (LLC-PK1 [11]) of the same compound?
A: 80%

Q: How did the Activity (LLC-PK1 [1]) turn out when `C=C(C)[C@@H]1CC[C@]2(C(=O)O)CC[C@]3(C)[C@H](CC[C@@H]4[C@@]5(C)C[C@@H](O)[C@H](O)C(C)(C)[C@@H]5CC[C@]43C)[C@@H]12` was run?
A: Dose-dependent effect

Q: For `C=C(C)[C@@H]1CC[C@]2(C)CC[C@]3(C)[C@H](CC[C@@H]4[C@@]5(C)CC[C@H](O)C(C)(C)[C@@H]5CC[C@]43C)[C@@H]12` [LUPEOL], which Activity (LLC-PK1 [2]) is on record?
A: 80%

Q: What about the Activity (LLC-PK1 [3]) of the same compound?
A: Active

Q: What about the Activity (LLC-PK1 [4]) of the same compound?
A: Active

Q: What about the Activity (LLC-PK1 [5]) of the same compound?
A: Active

Q: And the Activity (LLC-PK1 [6])?
A: Active

Q: And the inhibition (LLC-PK1 [7])?
A: Active

Q: What about the inhibition (LLC-PK1 [8]) of the same compound?
A: Active

Q: What about the inhibition (LLC-PK1 [9]) of the same compound?
A: Active

Q: What about the inhibition (LLC-PK1 [10]) of the same compound?
A: Active

Q: What about the Activity (LLC-PK1 [1]) of the same compound?
A: Dose-dependent effect

Q: And the Activity (LLC-PK1 [11])?
A: 80%

Q: `C=C(C)[C@@H]1CC[C@]2(C(=O)OC)CC[C@]3(C)[C@H](CC[C@@H]4[C@@]5(C)CC[C@@H](O)C(C)(C)[C@@H]5CC[C@]43C)[C@@H]12` was tested. Which Activity (LLC-PK1 [1]) did it give?
A: Dose-dependent effect
